According to patent publication US8728797B2, “Yeast membrane protein expression system and its application in drug screening” (priority 2001, dated 2014):
Converted amounts (≈) assume the structure as drawn.

Key:
S. cerevisiae AD1-8u^− = test: MIC microdilution test, parental strain; format: cell-based; settings: Saccharomyces cerevisiae; AD1-8u^− parental strain; 30° C., 48 h, pH 7.0
Method: (§1) The MICs of antifungal agents for S. cerevisiae cells were determined by a microdilution test based on the macrodilution reference method of the National Committee for Clinical Laboratory Standards. Cells (10 μl cell suspension, 2×10^5 cells/ml) were inoculated into 90 μl CSM-URA, buffered with 10 mM 2-(N-morpholino)ethanesulfonic acid (MES) and 18 mM N-2-hydroxyethylpiperazine-N′-2-ethanesulfonic acid (HEPES), pH 7.0 and containing 0.67% (w/v) yeast nitrogen base (YNB) in microtitre plate wells. For the uracil-requiring strain AD1-8u^− the medium was supplemented with 0.02% (w/v) uridine. The wells contained, in […], doubling dilutions of antifungal agents (final concentrations: fluconazole, 40-0.078 μg/ml; itraconazole and ketoconazole, 8-0.016 μg/ml). The microtitre plates were incubated at 30° C. for 48 h with shaking and then the growth of cells in individual wells (OD590) was measured with a microplate reader (EL 340, Bio-Tek, Winooski, Vt.). The MIC80 was the lowest concentration of drug that inhibited growth yield by at least 80% compared to a no-drug control.

S. cerevisiae AD1-8/CDR2 = test: MIC microdilution test, strain expressing Cdr2p; format: cell-based; settings: Saccharomyces cerevisiae, AD18/CDR2, 30° C.
Method: as §1

[1] = tested on: S. cerevisiae AD1002 expressing C. albicans Cdr1p; test: MIC microdilution test, strain expressing Cdr1p; format: cell-based; settings: for MIC80: AD1002 expressing Cdr1p, 30° C., 48 h, pH 7.0; for fold increase in MIC: AD1002 relative to parental AD1-8u^−
Method: as §1

AD1002 = test: Disk drug susceptibility assay of chemosensitisation to fluconazole; format: cell-based, S. cerevisiae; settings: 5 μg/ml fluconazole, 12 nanomole peptide on disk
Method: (A) Checkerboard drug susceptibility assay of AD1002. This assay was conducted as described in Materials and methods in the presence of the indicated concentrations of fluconazole and KN20. (B) Disk drug susceptibility assay of AD1002. This assay was conducted, as described in Materials and methods for Example 4, in the absence or presence of 5 μg/ml fluconazole, with (1) KN0 (12 nanomole), (2) KN20 (12 nanomole) or (0) control amounts of DMSO applied to the disks. (C) Checkerboard drug susceptibility assay of ATCC 10261. This assay was conducted, as described in Material and methods for Example 4, in the presence of the indicated concentrations of fluconazole and KN20. D indicates cell death as measured by a failure to recover any colony forming units when samples from microtitre plate wells were cultured on solid YPD medium.
(§2) Drug susceptibility was measured using disk assays on CSM-URA plates (containing 1.5% w/v agar). Plates were seeded with yeast cells suspended in top agar (5 ml, 10^5 cells/ml). For the uracil-dependent parental strain, agar was supplemented with 0.02% uridine. Five microliters of drug solution or solvent control were spotted onto sterile Whatman paper disks on the top agar. […]

Pdr5p ATPase = biological target: T1, Pdr5p ATPase (Saccharomyces cerevisiae, UniProt P33302); test: Oligomycin sensitive ATPase activity of AD124567 plasma membranes; format: biochemical, S. cerevisiae; settings: in vitro
T1 construct: plasma membranes from the AD124567 yeast strain overexpressing Pdr5p; endogenous in cells; host or cells: S. cerevisiae AD124567 (pdr1-3, PDR5 intact), plasma membrane fraction
Method: (A) Inhibition profiles of oligomycin-sensitive Pdr5p ATPase activity by the purified peptides D-NH2-asparagine-tryptophan-tryptophan-lysine-valine-arginine-arginine-arginine-CONH2 (KN0) and its singly substituted Mtr-derivative KN20. (B) Inhibition profile with KN20 on the oligomycin-sensitive Cdr1p ATPase activity of plasma membranes from AD1002 minus the oligomycin-sensitive ATPase activity of plasma membranes from the isogenic AD1-8u^− strain.
Yeast were grown in YEPD, pH 5.5 at 30° C. until they reached late-exponential phase of growth (OD600 nm=7), washed twice in ice-cold distilled water, and incubated on ice for 30 min to minimize glucose-stimulated Pma1p activity. Cells were resuspended in homogenising medium (50 mM Tris pH 7.5, 2 mM EDTA and 1 mM phenylmethylsulfonyl fluoride) and disrupted using a Braun Homogeniser. Cell debris and unbroken cells were removed by centrifuging at 2,000×g at 4° C. for 10 min. A crude membrane fraction was isolated from the cell-free supernatant by centrifuging at 30,000×g at 4° C. for 45 min. Plasma membranes were prepared by centrifugation of the supernatant obtained after selective precipitation of mitochondria at pH 5.2 as described previously (Goffeau, A. and Dufour, J. P., 1988). […] Protein was determined using a micro-Bradford (Bio-Rad Laboratories, Hercules, Calif. [Bradford, M. M., 1976]) assay with gamma-globulin as standard. Nucleotide triphosphatase activity was measured by incubating the plasma membrane fractions (10 μg) at 30° C. in a final volume of 120 μl containing 6 mM NTP, 7 mM MgSO4 in 59 mM MES-Tris buffer pH 6.0-8.0. […] Other ATPase inhibitors (20 μM oligomycin, 20 μM aurovertin B or 100 μM vanadate were added to the reaction where indicated. After 30 min the reaction was stopped by adding 130 μl of a solution containing 1% (w/v) SDS, 0.6 M H2SO4, 1.2% (w/v) ammonium molybdate and 1.6% (w/v) ascorbic acid. Inorganic phosphate released from NTPs was measured at 750 nm after 10 min incubation at room temperature.

[2] = tested on: AD124567 (Pdr5p-overexpressing); test: Disk drug susceptibility assay of chemosensitisation to fluconazole; format: cell-based, S. cerevisiae; settings: 120 μg/ml fluconazole, 47 nanomole peptide on disk
Method: (A) Checkerboard drug susceptibility assay of AD124567 in the presence of the indicated concentrations of fluconazole and KN20. (B) Disk drug susceptibility assay of AD124567. This assay was conducted, as described in Materials and methods for example 4, in the absence or presence of fluconazole (120 μg/ml), and in the presence of (1) KN0 (47 nanomole), (2) KN20 (47 nanomole) or (0) control amounts of DMSO applied to disks
as §2

T1 sequence (P33302 whole entry): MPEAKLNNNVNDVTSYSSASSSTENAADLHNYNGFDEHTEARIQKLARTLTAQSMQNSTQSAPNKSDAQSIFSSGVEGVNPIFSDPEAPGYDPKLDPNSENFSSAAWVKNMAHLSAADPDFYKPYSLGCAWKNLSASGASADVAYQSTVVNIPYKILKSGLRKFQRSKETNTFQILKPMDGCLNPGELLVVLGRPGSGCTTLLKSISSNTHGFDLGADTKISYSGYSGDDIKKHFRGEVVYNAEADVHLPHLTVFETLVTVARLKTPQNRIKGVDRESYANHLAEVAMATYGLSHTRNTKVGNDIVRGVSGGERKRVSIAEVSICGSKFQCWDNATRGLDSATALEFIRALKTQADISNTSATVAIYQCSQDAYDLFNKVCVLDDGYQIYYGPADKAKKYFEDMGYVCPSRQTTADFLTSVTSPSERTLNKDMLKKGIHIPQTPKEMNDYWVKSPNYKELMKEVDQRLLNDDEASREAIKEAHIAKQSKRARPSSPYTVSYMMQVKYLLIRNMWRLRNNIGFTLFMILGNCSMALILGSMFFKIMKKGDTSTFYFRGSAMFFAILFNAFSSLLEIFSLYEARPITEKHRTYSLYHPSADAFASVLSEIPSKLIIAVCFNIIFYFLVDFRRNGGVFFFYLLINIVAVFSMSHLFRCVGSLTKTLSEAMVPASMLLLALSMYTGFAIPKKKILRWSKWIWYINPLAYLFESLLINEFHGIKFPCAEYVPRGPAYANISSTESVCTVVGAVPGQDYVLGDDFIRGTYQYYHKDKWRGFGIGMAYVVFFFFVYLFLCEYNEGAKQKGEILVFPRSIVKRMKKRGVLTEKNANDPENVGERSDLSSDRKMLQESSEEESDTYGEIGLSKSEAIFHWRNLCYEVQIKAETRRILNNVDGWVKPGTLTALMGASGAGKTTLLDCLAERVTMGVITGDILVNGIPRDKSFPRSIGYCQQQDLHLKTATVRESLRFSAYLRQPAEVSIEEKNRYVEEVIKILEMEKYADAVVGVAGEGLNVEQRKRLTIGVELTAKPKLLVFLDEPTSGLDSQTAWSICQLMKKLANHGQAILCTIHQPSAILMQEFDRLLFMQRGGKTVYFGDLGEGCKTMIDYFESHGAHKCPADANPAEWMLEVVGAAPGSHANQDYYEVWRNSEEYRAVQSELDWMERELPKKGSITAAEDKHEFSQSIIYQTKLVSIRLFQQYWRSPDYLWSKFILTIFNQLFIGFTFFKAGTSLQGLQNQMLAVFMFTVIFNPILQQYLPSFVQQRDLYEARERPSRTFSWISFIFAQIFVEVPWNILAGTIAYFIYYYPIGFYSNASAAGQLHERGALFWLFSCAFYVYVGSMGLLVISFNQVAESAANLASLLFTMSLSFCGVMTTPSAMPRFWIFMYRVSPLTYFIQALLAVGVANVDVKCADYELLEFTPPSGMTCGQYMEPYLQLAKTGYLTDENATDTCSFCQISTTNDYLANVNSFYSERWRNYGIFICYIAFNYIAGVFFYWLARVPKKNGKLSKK

Row | Compound | MIC80 (S. cerevisiae AD1-8u^−) | MIC80 (S. cerevisiae AD1-8/CDR2) | MIC80 [1] | fold increase in MIC [1] | chemosensitisation to fluconazole in disk assay (AD1002) | effect on oligomycin sensitive Pdr5p ATPase activity (Pdr5p ATPase) | chemosensitisation to fluconazole in disk assay [2]
1 | CCC(C)n1ncn(-c2ccc(N3CCN(c4ccc(OCC5COC(Cn6cncn6)(c6ccc(Cl)cc6Cl)O5)cc4)CC3)cc2)c1=O (centres unmarked) [itraconazole] | < 0.016 µg/mL | 1 µg/mL (≈ 1.42 µM) | 4 µg/mL (≈ 5.67 µM) | > 250 fold | – | – | –
2 | CC(=O)N1CCN(c2ccc(OCC3COC(Cn4ccnc4)(c4ccc(Cl)cc4Cl)O3)cc2)CC1 (centres unmarked) [ketoconazole] | < 0.016 µg/mL | 2 µg/mL (≈ 3.76 µM) | 0.5 µg/mL (≈ 0.941 µM) | > 31 fold | – | – | –
3 | D-NH2-asparagine-tryptophan-tryptophan-lysine-valine-arginine-arginine-arginine-CONH2 [KN0] | – | – | – | – | ineffective at chemosensitisation | ineffective | ineffective at chemosensitisation
